# Experimental data as given in patent publication US20260232666A1, “COMPOSITIONS AND METHODS FOR INHIBITION OF RAS” (TheRas, Inc., priority 2023, published 2026).
# Experiments:
# [1] = target: T1, GppNHp-loaded KRAS4b (amino acids 1-169) G12C/C118S protein (Homo sapiens, UniProt P01116, C118S/G12C); assay: Covalent cysteine 12 modification by MALDI-TOF MS, GppNHp-loaded KRAS G12C; assay type: binding; details: 15 minutes reaction time point
# T1 construct: KRAS4b (amino acids 1-169) G12C/C118S protein; made in house
# In short: (§1)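 1 μM GppNHp-, GTP- or GDP-loaded KRAS4b (1-169) G12C/C118S in 20 mM HEPES, 150 mM NaCl, 1 mM MgCl2, pH 7.3, at 1:2.5 protein:compound, room temperature in the dark. Percent Cys12 modification from MALDI-TOF peak heights (adduct/total protein), reported at 15 min.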
# [2] = target: T2, GTP-loaded KRAS4b (amino acids 1-169) G12C/C118S protein (Homo sapiens, UniProt P01116, C118S/G12C); assay: Covalent cysteine 12 modification by MALDI-TOF MS, GTP-loaded KRAS G12C; assay type: binding; details: 15 minutes reaction time point
# T2 construct: KRAS4b (amino acids 1-169) G12C/C118S protein; made in house
# In short: as §1
# [3] = target: T3, GDP-loaded KRAS4b (amino acids 1-169) G12C/C118S protein (Homo sapiens, UniProt P01116, C118S/G12C); assay: Covalent cysteine 12 modification by MALDI-TOF MS, GDP-loaded KRAS G12C; assay type: binding; details: 15 minutes reaction time point
# T3 construct: KRAS4b (amino acids 1-169) G12C/C118S protein; made in house
# In short: as §1
# pERK in NCI-H358 cells = assay: Cell-based pERK HTRF assay (pERK inhibition in H358 cells); details: 30 min incubation
# In short: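 NCI-H358 cells were seeded at 4×10^4 cells/well in RPMI/10% FBS, then treated next day for 30 min at 0.25% DMSO (9-point, 3-fold series from 75 μM). Lysates were read by HTRF (d2/Eu cryptate antibody pair, 615 nm emission) after 4–24 h at room temperature to give pERK IC50.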
Compound,GppNHp-KRAS G12C percent of modification [1],GTP-KRAS G12C percent of modification [2],GDP-KRAS G12C percent of modification [3],"IC50 (pERK in NCI-H358 cells; Homo sapiens, NCI-H358, 0.5 h) [nM]",IC50 (pERK in NCI-H358 cells) [nM]
C=CC(=O)N1CC[C@@H](N(CC)c2nc(OC[C@@]34CCCN3C[C@H](F)C4)nc3c(F)c(-c4ccc(F)c5sc(N)c(C#N)c45)c(Cl)cc23)[C@H]1CC [Compound 20],C (10%≤percent of modification <50%),C (10%≤percent of modification <50%),C (10%≤percent of modification <50%),< 100,–
C=CC(=O)N1CC[C@@H](N(C)c2nc(OC[C@@H]3C[C@@H](F)CN3CC)nc3c(F)c(-c4ccc(F)c5sc(N)c(C#N)c45)c(Cl)cc23)[C@@H]1C [Compound 105],A (percent of modification ≥70%),C (10%≤percent of modification <50%),B (50≤percent of modification <70%),< 100,–
C=CC(=O)N1C[C@H]2CC[C@@H]1CN2c1nc(OC[C@@]23CCCN2C[C@H](F)C3)nc2c(F)c(-c3ccc(F)c4sc(N)c(C#N)c34)c(C(F)(F)F)cc12 [Compound 36],D (percent of modification <10%),D (percent of modification <10%),D (percent of modification <10%),100 to 1000,–
C=CC(=O)N1CC[C@@H](N(CC)c2nc(OC[C@]34CCCN3C[C@H](OC)C4)nc3c(F)c(-c4ccc(F)c5sc(N)c(C#N)c45)c(Cl)cc23)[C@H]1C [Compound 164],A (percent of modification ≥70%),A (percent of modification ≥70%),A (percent of modification ≥70%),< 100,–
C=CC(=O)N1CC[C@@H](N(CC)c2nc(OC[C@@]34CCCN3C[C@H](OC)C4)nc3cc(-c4ccc(F)c5sc(N)c(C#N)c45)c(F)cc23)[C@H]1C [Compound 149],A (percent of modification ≥70%),A (percent of modification ≥70%),A (percent of modification ≥70%),< 100,–
C=CC(=O)N1CC[C@@H](N(C)c2nc(OC[C@@]34CCCN3C[C@H](F)C4)nc3cc(-c4ccc(F)c5sc(N)c(C#N)c45)c(F)cc23)[C@H]1CC [Compound 29],A (percent of modification ≥70%),A (percent of modification ≥70%),A (percent of modification ≥70%),< 100,–
C=CC(=O)N1CC[C@@H](N(CC)c2nc(OC[C@@H]3C[C@@H](F)CN3C)nc3cc(-c4ccc(F)c5sc(N)c(C#N)c45)c(F)cc23)[C@H]1C [Compound 139],A (percent of modification ≥70%),A (percent of modification ≥70%),A (percent of modification ≥70%),100 to 1000,–
C=CC(=O)N1CCC(N(C)c2nc(OC[C@@H]3CCCN3C)nc3c(F)c(-c4nc(N)cc(C)c4C(F)(F)F)c(Cl)cc23)[C@H]1C (stereo partly drawn) [Compound 9],C (10%≤percent of modification <50%),C (10%≤percent of modification <50%),B (50≤percent of modification <70%),100 to 1000,–
"C=CC(=O)N1CC[C@@H](N(CC)c2nc(OC[C@@H]3C[C@@H](F)CN3C)nc3c(F)c(-c4ccc(F)c5sc(N)c(C#N)c45)c(C(F)(F)F)cc23)[C@H]1C (atropisomer, axis not shown) [Compound 113]",A (percent of modification ≥70%),A (percent of modification ≥70%),A (percent of modification ≥70%),–,< 100
C=CC(=O)N1CC[C@@H](N(C)c2nc(OC[C@@]34CCCN3C[C@H](F)C4)nc3cc(-c4ccc(F)c5sc(N)c(C#N)c45)c(C#N)cc23)[C@@H]1CC [Compound 24],C (10%≤percent of modification <50%),D (percent of modification <10%),A (percent of modification ≥70%),< 100,–
C=CC(=O)N1CC[C@@H](N(C)c2nc(OC[C@@]34CCCN3C[C@H](F)C4)nc3c(F)c(-c4ccc(F)c5sc(N)c(C#N)c45)c(Cl)cc23)[C@H]1CC [Compound 19],C (10%≤percent of modification <50%),C (10%≤percent of modification <50%),C (10%≤percent of modification <50%),< 100,–
C=CC(=O)N1CC[C@@H](N(C)c2nc(OC[C@@]34CCCN3C[C@H](F)C4)nc3c(F)c(-c4ccc(F)c5sc(N)c(C#N)c45)ccc23)[C@H]1CC [Compound 4],A (percent of modification ≥70%),A (percent of modification ≥70%),A (percent of modification ≥70%),< 100,–
C=CC(=O)N1C[C@H](N(C)c2nc(OC[C@@]34CCCN3C[C@H](F)C4)nc3cc(-c4ccc(F)c5sc(N)c(C#N)c45)c(F)cc23)C[C@H]1C [Compound 148],A (percent of modification ≥70%),A (percent of modification ≥70%),A (percent of modification ≥70%),< 100,–
"C=CC(=O)N1CC[C@@H](N(C)c2nc(OC[C@H]3C[C@@H](OC)CN3C)nc3c(F)c(-c4ccc(F)c5sc(N)c(C#N)c45)c(C(F)(F)F)cc23)[C@H]1C (single isomer, unassigned) [Compound 173]",A (percent of modification ≥70%),A (percent of modification ≥70%),A (percent of modification ≥70%),< 100,–
C=CC(=O)N1CCC(N(C)c2nc(OC[C@@]34CCCN3C[C@H](F)C4)nc3c(F)c(-c4nc(N)cc(C)c4C(F)(F)F)c(Cl)cc23)[C@H]1C (stereo partly drawn) [Compound 10],B (50≤percent of modification <70%),B (50≤percent of modification <70%),A (percent of modification ≥70%),< 100,–
C=CC(=O)N1CCC(N(CC)c2nc(OC[C@@]34CCCN3C[C@H](F)C4)nc3c(F)c(-c4ccc(F)c5sc(N)c(C#N)c45)c(C(F)(F)F)cc23)[C@H]1CC (stereo partly drawn) [Compound 8],C (10%≤percent of modification <50%),C (10%≤percent of modification <50%),C (10%≤percent of modification <50%),< 100,–
C=CC(=O)N1CC[C@@H](N(CC)c2nc(OC[C@]34CCCN3C[C@H](F)C4)nc3c(F)c(-c4ccc(F)c5sc(N)c(C#N)c45)c(Cl)cc23)[C@H]1C [Compound 165],A (percent of modification ≥70%),A (percent of modification ≥70%),A (percent of modification ≥70%),< 100,–
C=CC(=O)N1CCC(N(CC)c2nc(OC[C@@]34CCCN3C[C@H](F)C4)nc3c(F)c(-c4ccc(F)c5sc(N)c(C#N)c45)ccc23)[C@H]1CC (stereo partly drawn) [Compound 11],A (percent of modification ≥70%),A (percent of modification ≥70%),A (percent of modification ≥70%),100 to 1000,–
